Publication PMC5041104, “Structure-based discovery of two antiviral inhibitors targeting the NS3 helicase of Japanese encephalitis virus” (Scientific Reports, 2016)

Experiments:
[1] = target: JEV NS3 helicase (unwinding activity) (Japanese encephalitis virus, UniProt P27395); experiment: NS3 helicase unwinding inhibition, fluorescence resonance energy transfer (FRET) assay; details: for highest inhibitory level on NS3 helicase unwinding activity: concentration-dependent inhibition, levels reaching as high as; for inhibition of NS3 unwinding activity in helicase inhibitor screening: screening of 41 selected compounds, FRET assay
Sequence of JEV NS3 helicase (unwinding activity) (P27395 1684-2123): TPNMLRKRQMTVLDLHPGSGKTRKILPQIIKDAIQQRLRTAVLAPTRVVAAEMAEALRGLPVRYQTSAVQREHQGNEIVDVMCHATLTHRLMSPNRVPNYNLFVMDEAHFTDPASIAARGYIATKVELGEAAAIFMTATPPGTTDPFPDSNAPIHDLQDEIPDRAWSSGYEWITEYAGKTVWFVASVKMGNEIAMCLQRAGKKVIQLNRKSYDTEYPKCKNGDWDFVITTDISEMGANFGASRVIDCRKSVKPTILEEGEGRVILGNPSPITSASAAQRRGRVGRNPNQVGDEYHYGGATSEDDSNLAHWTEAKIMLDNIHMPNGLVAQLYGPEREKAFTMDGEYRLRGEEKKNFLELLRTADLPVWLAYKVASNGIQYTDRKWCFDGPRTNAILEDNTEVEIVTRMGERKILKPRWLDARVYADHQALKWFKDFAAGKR

[2] = Compound cytotoxicity (cell viability); details: hamster
JEV [3] = experiment: Antiviral effect by indirect immunofluorescence assay (IFA) of NS5 in BHK-21 cells; details: 48 h, JEV-infected control 84.03%
JEV [4] = experiment: Plaque reduction assay in BHK-21 cells; details: 48 h, untreated control 3.03 × 10^6 PFU/mL
JEV [5] = experiment: Antiviral effect by Western blot of JEV envelope (E) protein in BHK-21 cells; format: cell-based, Japanese encephalitis virus; details: 48 h, normalized to GAPDH; for reduction of expression of E protein: 20 μM, relative to non-compound treated group
[6] = target: JEV NS3 helicase (ATPase activity) (Japanese encephalitis virus, UniProt P27395); experiment: Effect on the ATPase activity of NS3 helicase (Kinase-Glo Plus luminescence); format: biochemical; details: 200 μM compound, 30 min
Sequence of JEV NS3 helicase (ATPase activity) (P27395 1684-2123): as above
Method: The effect of each compound on ATPase activity was tested using a nonradioactive method as previously described. […] The reaction mixture comprised 3 μM of recombinant NS3 helicase and 100 μM ATP in ATPase reaction buffer (20 mM Tris-HCl pH 8.0, 50 mM NaCl, 10 mM MgCl2). Three reactions were conducted for each test. After incubation at 37 °C for 30 min, an equal volume of Kinase-Glo Plus reagent (Promega) was added to each well to quantitate the remaining ATP. The luminescence value of each well was tested by an Infinite 200 PRO multimode reader.

JEV [7] = experiment: Determination of EC50 (CPE inhibition, Celltiter-Glo cell viability of JEV-infected BHK-21 cells); details: Japanese encephalitis virus, BHK-21, 120 h, read-out: 50% effective concentration (EC50)
WNV = WNV in cells; read-out: EC50, inhibitory effect on the virus in cells; cited from earlier work
WNV NS2B-NS3 protease = details: cited from earlier work

CCCC(=O)Nc1nc2ccc(NC(=S)NC(=O)c3cccs3)cc2s1 [compound 2]
IC50 [1]: 150 µM
highest inhibitory level on NS3 helicase unwinding activity [1]: 73%
inhibition of NS3 unwinding activity in helicase inhibitor screening [1]: more than 60%
viability at 120 h, 200 µM [2]: > 60%
level of JEV-positive cells (NS5 positive) (JEV [3]; 5 μM): 50.40%
level of JEV-positive cells (NS5 positive) (JEV [3]; 25 μM): 10.07%
average virus titer (JEV [4]; 10 μM): 4.65 × 10^4 PFU/mL
average virus titer (JEV [4]; 20 μM): 3.6 × 10^4 PFU/mL
average virus titer (JEV [4]; 30 μM): 2.6 × 10^4 PFU/mL
average virus titer (JEV [4]; 40 μM): 1.8 × 10^4 PFU/mL
inhibition of E protein expression (JEV [5]; 5 μM): 86.3%
reduction of expression of E protein (JEV [5]): 94.8%
inhibition of ATPase activity of NS3 helicase [6]: do not inhibit the ATPase activity
EC50 (JEV [7]): 23.5 µM

phenacetyl-KKR-Aldehyde
EC50 (WNV): 1.6 µM
Ki (WNV NS2B-NS3 protease): 0.009 µM

CS(=O)(=O)c1ccc2nc(NC(=O)c3ccc(Cn4cc([N+](=O)[O-])cn4)cc3)sc2c1 [compound 1]
IC50 [1]: 148 µM
highest inhibitory level on NS3 helicase unwinding activity [1]: 79%
inhibition of NS3 unwinding activity in helicase inhibitor screening [1]: more than 60%
CC50 at 120 h [2]: 168 µM
level of JEV-positive cells (NS5 positive) (JEV [3]; 5 μM): 58.71%
level of JEV-positive cells (NS5 positive) (JEV [3]; 25 μM): 13.29%
average virus titer (JEV [4]; 20 μM): 2.7 × 10^4 PFU/mL
average virus titer (JEV [4]; 30 μM): 2.1 × 10^4 PFU/mL
average virus titer (JEV [4]; 40 μM): 8.9 × 10^3 PFU/mL
reduction of expression of E protein (JEV [5]): 70.1%
inhibition of ATPase activity of NS3 helicase [6]: do not inhibit the ATPase activity
EC50 (JEV [7]): 25.7 µM
